Experiments:
[1] = for surface tension liquid-gas: Ring tensiometer; for mass density: 101.33 kPa, Liquid
[2] = xn = mol fraction of the nth substance listed; conditions: Ring tensiometer

OCc1ccccc1 [benzenemethanol]
[1]
Conditions	mass density [kg/m3]	surface tension liquid-gas [mN/m]
293.15 K	1045.2	39.05
298.15 K	1041.4	38.58
303.15 K	–	38.12
308.15 K	–	37.63
313.15 K	–	37.16
318.15 K	1025.8	36.63
323.15 K	–	36.18

OCc1ccccc1 [benzenemethanol] + CC(C)O
surface tension liquid-gas [mN/m], [2]
Conditions	x2 = 0	x2 = 0.0029	x2 = 0.005	x2 = 0.0076	x2 = 0.0117	x2 = 0.0207	x2 = 0.0329	x2 = 0.0494
293.15 K	39.05	37.69	37.53	37.21	36.95	36.79	36.56	36.06
298.15 K	38.58	37.3	37.09	36.8	36.53	36.37	36.15	35.53
303.15 K	38.12	36.95	36.68	36.43	36.13	35.97	35.78	35.09
308.15 K	37.63	36.62	36.32	36.05	35.75	35.55	35.41	34.61
313.15 K	37.16	36.29	35.92	35.68	35.39	35.14	35.04	34.11
318.15 K	36.63	35.89	35.48	35.27	35.04	34.73	34.62	33.63
323.15 K	36.18	35.55	35.04	34.92	34.64	34.29	34.22	33.22

OCc1ccccc1 [benzenemethanol] + CCC(C)O
surface tension liquid-gas [mN/m], [2]
Conditions	x2 = 0	x2 = 0.0026	x2 = 0.0056	x2 = 0.0078	x2 = 0.0107	x2 = 0.0246	x2 = 0.0366	x2 = 0.0512
293.15 K	39.05	37.5	37.14	36.95	36.4	36.07	35.65	35.32
298.15 K	38.58	37.08	36.75	36.52	36.05	35.64	35.25	34.88
303.15 K	38.12	36.63	36.31	36.12	35.72	35.18	34.83	34.4
308.15 K	37.63	36.2	35.97	35.71	35.39	34.77	34.46	34
313.15 K	37.16	35.75	35.55	35.31	35.03	34.37	34.03	33.54
318.15 K	36.63	35.35	35.17	34.9	34.67	33.95	33.62	33.07
323.15 K	36.18	34.95	34.8	34.49	34.34	33.5	33.24	32.7

OCc1ccccc1 [benzenemethanol] + CCCC(C)O
surface tension liquid-gas [mN/m], [2]
Conditions	x2 = 0	x2 = 0.0026	x2 = 0.0055	x2 = 0.0093	x2 = 0.0129	x2 = 0.0238	x2 = 0.0344	x2 = 0.0542
293.15 K	39.05	36.98	36.71	36.43	35.99	35.72	35.49	35.08
298.15 K	38.58	36.48	36.22	35.95	35.54	35.32	35.08	34.61
303.15 K	38.12	35.95	35.7	35.53	35.15	34.9	34.71	34.1
308.15 K	37.63	35.46	35.18	35	34.73	34.49	34.32	33.61
313.15 K	37.16	34.97	34.73	34.54	34.33	34.05	33.93	33.1
318.15 K	36.63	34.44	34.18	34.07	33.91	33.63	33.49	32.69
323.15 K	36.18	33.91	33.65	33.56	33.55	33.28	33.11	32.19

OCc1ccccc1 [benzenemethanol] + CCCCCO
surface tension liquid-gas [mN/m], [2]
Conditions	x2 = 0	x2 = 0.0037	x2 = 0.0052	x2 = 0.0083	x2 = 0.0117	x2 = 0.0213	x2 = 0.0336	x2 = 0.0536
293.15 K	39.05	36.88	36.73	36.56	36.35	35.93	35.63	35.22
298.15 K	38.58	36.41	36.34	36.12	35.93	35.5	35.21	34.76
303.15 K	38.12	36.05	35.92	35.73	35.5	35.05	34.79	34.31
308.15 K	37.63	35.64	35.51	35.28	35.1	34.64	34.35	33.8
313.15 K	37.16	35.26	35.1	34.86	34.69	34.24	33.95	33.34
318.15 K	36.63	34.86	34.7	34.47	34.29	33.82	33.52	32.95
323.15 K	36.18	34.47	34.31	34.03	33.89	33.4	33.08	32.43

OCc1ccccc1 [benzenemethanol] + CCCCO
surface tension liquid-gas [mN/m], [2]
Conditions	x2 = 0	x2 = 0.0034	x2 = 0.0044	x2 = 0.0071	x2 = 0.0117	x2 = 0.0213	x2 = 0.0303	x2 = 0.0492
293.15 K	39.05	37.89	37.67	37.12	36.88	36.62	36.46	35.94
298.15 K	38.58	37.43	37.23	36.67	36.48	36.17	35.99	35.49
303.15 K	38.12	36.95	36.79	36.22	36.03	35.68	35.52	35.06
308.15 K	37.63	36.5	36.36	35.77	35.6	35.18	35.02	34.64
313.15 K	37.16	36.06	35.93	35.33	35.1	34.74	34.57	34.16
318.15 K	36.63	35.63	35.51	34.84	34.66	34.27	34.02	33.74
323.15 K	36.18	35.24	35.08	34.44	34.18	33.84	33.59	33.35

OCc1ccccc1 [benzenemethanol] + CCCO
surface tension liquid-gas [mN/m], [2]
Conditions	x2 = 0	x2 = 0.003	x2 = 0.0062	x2 = 0.0077	x2 = 0.0116	x2 = 0.0212	x2 = 0.0326	x2 = 0.0498
293.15 K	39.05	37.57	37.01	36.88	36.75	36.35	35.95	35.62
298.15 K	38.58	37.07	36.62	36.48	36.36	35.98	35.6	35.22
303.15 K	38.12	36.6	36.23	36.12	36	35.62	35.3	34.86
308.15 K	37.63	36.15	35.84	35.74	35.63	35.23	34.98	34.48
313.15 K	37.16	35.64	35.44	35.36	35.2	34.83	34.67	34.14
318.15 K	36.63	35.19	35.07	35	34.85	34.5	34.38	33.76
323.15 K	36.18	34.73	34.68	34.64	34.44	34.13	34.03	33.41

CCCCO [butan-1-ol]
[1]
Conditions	mass density [kg/m3]	surface tension liquid-gas [mN/m]
293.15 K	810.4	24.16
298.15 K	806.5	23.7
303.15 K	–	23.26
308.15 K	–	22.78
313.15 K	–	22.39
318.15 K	790.9	21.99
323.15 K	–	21.53

CCCCO [butan-1-ol] + OCc1ccccc1
[2], x1 = 1
Conditions	surface tension liquid-gas [mN/m]
293.15 K	24.16
298.15 K	23.7
303.15 K	23.26
308.15 K	22.78
313.15 K	22.39
318.15 K	21.99
323.15 K	21.53

CCC(C)O (stereo not drawn) [butan-2-ol] + OCc1ccccc1
[2], x1 = 1
Conditions	surface tension liquid-gas [mN/m]
293.15 K	23.18
298.15 K	22.74
303.15 K	22.38
308.15 K	21.94
313.15 K	21.56
318.15 K	21.11
323.15 K	20.76

CCCCCO [pentan-1-ol] + OCc1ccccc1
[2], x1 = 1
Conditions	surface tension liquid-gas [mN/m]
293.15 K	25.69
298.15 K	25.29
303.15 K	24.86
308.15 K	24.49
313.15 K	24.06
318.15 K	23.67
323.15 K	23.3

CCCC(C)O (stereo not drawn) [pentan-2-ol] + OCc1ccccc1
[2], x1 = 1
Conditions	surface tension liquid-gas [mN/m]
293.15 K	23.7
298.15 K	23.28
303.15 K	22.87
308.15 K	22.43
313.15 K	22.04
318.15 K	21.6
323.15 K	21.16

CCCO [propan-1-ol] + OCc1ccccc1
[2], x1 = 1
Conditions	surface tension liquid-gas [mN/m]
293.15 K	23.73
298.15 K	23.3
303.15 K	22.9
308.15 K	22.52
313.15 K	22.1
318.15 K	21.68
323.15 K	21.27

CC(C)O [propan-2-ol] + OCc1ccccc1
[2], x1 = 1
Conditions	surface tension liquid-gas [mN/m]
293.15 K	21.3
298.15 K	20.95
303.15 K	20.55
308.15 K	20.2
313.15 K	19.83
318.15 K	19.47
323.15 K	19.09

Source: the NIST ThermoML archive (doi:10.1021/je0500431)
